Earlier results in patent US9895325B2, “Tablet composition comprising cinacalcet hydrochloride” (SYNTHON B.V., priority 2012, dated 2018).

Details: pH 1

- solubility: approx. 0.1 mg/ml
SMILES: C[C@@H](NCCCc1cccc(C(F)(F)F)c1)c1cccc2ccccc12.Cl [Cinacalcet hydrochloride]
